For one test, the system named is A549. The experiment in a line: Cytotoxicity against human A549 cells. Type of test: functional, cell-based.
Test [1] can be described thus: Cytotoxicity against human A549/VP cells. Format: functional, cell-based.
The next test has as its system B16. The experiment in a line: Cytotoxicity against mouse B16 cells grown in PRIM medium. Type of test: functional, cell-based.
The next test concerns HCT-116. Kind of test: Cytotoxicity against human HCT116 cells. Type of test: functional, cell-based.
Test [2] can be described thus: Cytotoxicity against human HCT/VP35 cells. Format: functional, cell-based.
In test [3] the test system is P388. The experiment in a line: In vivo cytotoxicity against mouse P388 cells at 40 mg/kg, ip, scheduled Q01D for 5 days relative to control. Format: functional.
Test [4] concerns P388. Kind of test: In vivo cytotoxicity against mouse P388 cells at 20 mg/kg, ip, scheduled Q01D for 5 days relative to control. Format: functional.
The subject of test [5] is P388. Kind of test: In vivo cytotoxicity against mouse P388 cells at 10 mg/kg, ip, scheduled Q01D for 5 days relative to control. Format: functional.
Test [6] concerns P388. Kind of test: In vivo cytotoxicity against mouse P388 cells at 5 mg/kg, ip, scheduled Q01D for 5 days relative to control. Type of test: functional.
Test [7] has as its system P388. The experiment in a line: In vivo cytotoxicity against mouse P388 cells at 2.5 mg/kg, ip, scheduled Q01D for 5 days relative to control. Type of test: functional.
Test [8] relates to P388. Kind of test: In vivo cytotoxicity against mouse P388 cells at 16 mg/kg, ip, scheduled Q01D for 5 days relative to control. Format: functional.
Test [9] has as its system P388. Kind of test: In vivo cytotoxicity against mouse P388 cells at 8 mg/kg, ip, scheduled Q01D for 5 days relative to control. Type of test: functional.
In test [10] the test system is P388. Kind of test: In vivo cytotoxicity against mouse P388 cells at 4 mg/kg, ip, scheduled Q01D for 5 days relative to control. Format: functional.
The test system of test [11] is P388. Kind of test: In vivo cytotoxicity against mouse P388 cells at 64 mg/kg, ip, scheduled Q01D for 5 days relative to control. Format: functional.
The subject of test [12] is P388. The experiment in a line: In vivo cytotoxicity against mouse P388 cells at 32 mg/kg, ip, scheduled Q01D for 5 days relative to control. Format: functional.
The subject of test [13] is P388. The experiment in a line: In vivo cytotoxicity against mouse P388 cells at 48 mg/kg, ip, scheduled Q01D for 5 days relative to control. Format: functional.
Test [14] concerns P388. The experiment in a line: In vivo cytotoxicity against mouse P388 cells at 24 mg/kg, ip, scheduled Q01D for 5 days relative to control. Format: functional.
Test [15] relates to P388. The experiment in a line: In vivo cytotoxicity against mouse P388 cells at 12 mg/kg, ip, scheduled Q01D for 5 days relative to control. Format: functional.
The test system of test [16] is P388. The experiment in a line: In vivo cytotoxicity against mouse P388 cells at 6 mg/kg, ip, scheduled Q01D for 5 days relative to control. Format: functional.
For test [17], the system named is P388. The experiment in a line: In vivo cytotoxicity against mouse P388 cells at 3 mg/kg, ip, scheduled Q01D for 5 days relative to control. Type of test: functional.

The structures appear in SMILES notation. Values after ≈ are worked out from the molar mass of the structure shown.

What is called IC50 is the concentration at which inhibition is half-maximal. A higher IC50 goes with lower potency. For orientation: T/C means the ratio of treated to control. For `CC(=O)O[C@H]1C(=O)[C@@]2(C)[C@H]([C@H](OC(=O)c3ccccc3)[C@]3(O)C[C@H](OC(=O)[C@H](OC(=O)CCS(=O)(=O)[O-])[C@@H](NC(=O)c4ccccc4)c4ccccc4)C(C)=C1C3(C)C)[C@]1(OC(C)=O)CO[C@@H]1C[C@@H]2O.[Na+]`, the concentration for half-maximal inhibition (IC50) in the test with A549 was 0.4 µg/mL; in test [1] it was 0.19 µg/mL; in the test with B16, 0.02 µg/mL; in the test on HCT-116, under 0.02 µg/mL; in test [2], 0.05 µg/mL. The T/C with P388 [3] stood at 136%; in the test with P388 [4], 136%; in the test with P388 [5], 127%; in the test with P388 [6], 123%; in the test on P388 [7], 109%.
Consider `CC(=O)O[C@H]1C(=O)[C@@]2(C)[C@H]([C@H](OC(=O)c3ccccc3)[C@]3(O)C[C@H](OC(=O)[C@H](OC(=O)CCC(=O)NCCS(=O)(=O)[O-])[C@@H](NC(=O)c4ccccc4)c4ccccc4)C(C)=C1C3(C)C)[C@]1(OC(C)=O)CO[C@@H]1C[C@@H]2O.[Na+]`, for which the IC50 in the test with A549 was 0.09 µg/mL; in test [1] it was under 0.02 µg/mL; in the test on B16, under 0.02 µg/mL; in the test with HCT-116, under 0.02 µg/mL; in [2] it was 0.03 µg/mL. Further, the T/C in the test on P388 [8] was 127%; in the test on P388 [9], 114%; in the test on P388 [10] it was 109%; in the test with P388 [11], 132%; in the test on P388 [12], 136%.
For the compound `CC(=O)O[C@H]1C(=O)[C@@]2(C)[C@H]([C@H](OC(=O)c3ccccc3)[C@]3(O)C[C@H](OC(=O)[C@H](OC(=O)CCC(=O)NCCCS(=O)(=O)[O-])[C@@H](NC(=O)c4ccccc4)c4ccccc4)C(C)=C1C3(C)C)[C@]1(OC(C)=O)CO[C@@H]1C[C@@H]2O.[Na+]`, the IC50 in the test with A549 was 0.19 µg/mL; in [1] it was 0.11 µg/mL; in the test on B16, under 0.02 µg/mL; in the test with HCT-116, under 0.02 µg/mL; in test [2], 0.04 µg/mL. In addition, the T/C with P388 [13] was 127%; in the test on P388 [14] it was 123%; with P388 [15], 118%; with P388 [16], 114%; in the test on P388 [17] it was 109%.
Turning to `CC(=O)O[C@H]1C(=O)[C@@]2(C)[C@H]([C@H](OC(=O)c3ccccc3)[C@]3(O)C[C@H](OC(=O)[C@H](O)[C@@H](NC(=O)c4ccccc4)c4ccccc4)C(C)=C1C3(C)C)[C@]1(OC(C)=O)CO[C@@H]1C[C@@H]2O` [PACLITAXEL], the concentration for half-maximal inhibition (IC50) is 4.79 µg/mL (≈ 5.61 µM) with A549; under 0.02 µg/mL in test [1]; under 0.02 µg/mL in the test with B16; under 0.02 µg/mL in the test on HCT-116; under 0.02 µg/mL in test [2]. The T/C in the test with P388 [8] is reported as 155%; with P388 [9], 132%; with P388 [10], 150%.

Source of the values: ChEMBL document CHEMBL1150202, “Modified Taxols, 6. Preparation of Water-Soluble Prodrugs of Taxol” (J Nat Prod, 1991).
